The results in this text go back to article PMC8136485, “Were Ancestral Proteins Less Specific?” (Molecular Biology and Evolution, 2021).

Ends that are not written are not given here. * marks the point of attachment. 5FAM = O=C1OC2(c3ccc(O)cc3Oc3cc(O)ccc32)c2ccc(C(=O)*)cc21

A word on the Kd: it is the constant that tells how readily two partners part at equilibrium. A higher Kd goes with a looser complex.

One test has as its system hA5. The test is described as follows: Fluorescence polarization, direct titration of probe peptide with protein. Type of test: binding, human. As to conditions: 0.03 μM probe, 0 to ≈200 μM protein, 2 mM CaCl2, then 5 mM EDTA added. The text has this: (§1) To mimic the phage display experiment, we measured binding by displacement of a fluorescently labeled probe peptide. For our probe, we used the competitor peptide from the phage display experiment with the addition of an N-terminal 5-FAM fluorophore (fig. 3A). […] We could then measure fluorescence polarization of the probe peptide as a function of increasing concentrations of unlabeled peptide. A peptide that binds at the same site as the probe will displace the probe and thereby change the fluorescence polarization.
(§2) We fit the curve to a single-site binding model: (6) P([protein])∼ΔPmax[protein]/[protein]+KD,probe+P0 where P0 is the polarization of the peptide in the absence of protein, ΔPmax is the change in signal from unbound peptide to bound to the protein, and KD,probe is the probe dissociation constant. After recording the titration curve in the presence of CaCl2, we added 5 mM EDTA to all wells and remeasured the curve.
(§3) Fig S6: Binding of /f_luorescent probe peptide is calcium dependent. Panel show measured /f_luorescence anisotropy for the peptide 5FAM- GFDWR […] in the presence of […]
(§4) increasing protein concentration. Probe concentration was 0.03 uM. Proteins are hA5 (purple), hA6 (orange), ancA5/A6 (green), and human S100A9 (black). S100A9 is a negative control, because it is evolutionarily distant from hA5 and hA6 and would thus not be expec ted to bind to the probe […]
In general terms: Fluorescence polarisation rises when a labelled molecule tumbles more slowly, as on binding a larger partner.

A further test relates to hA6. The description is as above. Type of test: binding, human. The note with it: 0.03 μM probe, 0 to ≈200 μM protein, 2 mM CaCl2, then 5 mM EDTA added.
Excerpt: as §1, §2, §3, §4

A further test concerns ancA5/A6. Described as above. The test is classed as binding. The note with it: 0.03 μM probe, 0 to ≈200 μM protein, 2 mM CaCl2, then 5 mM EDTA added.
Excerpt: as §1, §2, §3, §4

Test [1] concerns the target T1, hA6 (human S100A6) (Homo sapiens, UniProt P06703).
T1 construct: His tag with TEV protease cleavage site (N, cleaved yes); made in house; host or cells: Rosetta E. coli (DE3) pLysS
Nature of the test: Fluorescence polarization, displacement of 5FAM probe peptide. The test is classed as binding. The note with it: displacement of 5FAM-labelled probe, 50 mM TES, 100 mM NaCl, 0.01% Tween-20, pH 7.4, 2.4-4.2 µM protein with equal probe, technical triplicate, corrected for probe.
Excerpt: as §1
(§5) We did the fluorescence polarization experiments in 50 mM TES, 100 mM NaCl, and 0.01% Tween-20, pH 7.4, thus matching the phage display experimental buffer. We ordered all nine test peptides and the probe peptide in milligram quantities at 95% purity (Genscript). For the probe peptide, we used “5FAM-[…],” where 5FAM indicates an N-terminally linked 5-carboxyfluorescein moiety. […] The only exception was […], which we dissolved in ddH2O .
(§6) We measured fluorescence anisotropy using a SpectraMax i3 plate reader (Molecular Devices) with 96-well black plates (Corning). Prior to reading each plate, we shook for 5 s and then acquired with 500 ms integration time. Prior to the set of experiments, we optimized detector height and calibrated the plate’s xy position to maximize signal. We then kept this calibration throughout the set of experiments. For each experiment, we recorded both vertical (vv) and horizontal (vh) emission channels and then converted to arbitrary polarization units by: (5) R=vv−Gvh/vv+2Gvh with G set to 1.0. Titrations were done by serial dilution through conditions on individual plates, followed by measurement of all wells. We did all measurements in technical triplicate. We used custom software to programmatically remove technical replicate outliers.
(§7) For our production experiments, we added increasing amounts of competitor peptide to wells with between 2.4 and 4.2 µM protein (monomer). Each well also contained probe peptide at the same concentration as the protein. We selected these concentrations to maximize the amount of signal change upon addition of competitor peptide KD,probe . We calculated the expected signal change by: (7) ΔPpredicted=ΔPmax×[MX]/[X]T where ΔPmax=0.135 (as determined by our initial fits to extract probe peptide KD,probe ), [X]T was the total probe concentration, and [MX] was the concentration of the probe/protein complex prior to adding competitor peptide. We calculated [MX] by: (8) [MX]=([X]T+[M]T+KD,probe)±([X]T+[M]T+KD,probe)^2−4[X]T[M]T/2 where [M]T was the total protein concentration.
(§8) Prior to fitting a binding model to each curve, we converted it from polarization to fractional saturation. We did so by first fitting the single-site binding model to the data to obtain an estimate of the initial polarization (P0) for the protein/peptide pair. We then subtracted this value of P0 to obtain a baseline-subtracted polarization. We then divided the baseline-subtracted polarization by ΔPpredicted , yielding a fractional saturation (θ).
(§9) We then fit a reduced form of the single-site binding model to the data: (9) θ=[protein]/[protein]+KD,apparent
(§10) Finally, we corrected the resulting KD,apparent to account for the effect of the competitor peptide ([Hulme and Trevethick 2010]): (10) KD,peptide=KD,apparent/1+[X]T*(1−δ/2)/KD,probe+δ/(1−δ) where [X]T is the total probe peptide concentration and δ=[MX]/[X]T .

In test [2] the target is T2, hA5 (human S100A5) (Homo sapiens, UniProt P33763).
T2 construct: His tag with TEV protease cleavage site (N, cleaved yes); made in house; host or cells: Rosetta E. coli (DE3) pLysS
T2 sequence (P33763 1-92): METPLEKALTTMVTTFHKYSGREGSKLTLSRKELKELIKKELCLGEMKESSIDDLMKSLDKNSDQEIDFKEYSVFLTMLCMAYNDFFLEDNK
The test is described as above. The test is classed as binding. As to conditions: displacement of 5FAM-labelled probe, 50 mM TES, 100 mM NaCl, 0.01% Tween-20, pH 7.4, 2.4-4.2 µM protein with equal probe, technical triplicate, corrected for probe.
Excerpt: as §1, §5, §6, §7, §8, §9, §10

Test [3] has as its target T1, hA6 (human S100A6). The test is described as follows: Quantitative phage display enrichment with/without competitor peptide. The note with it: E=−ln(cnon-competitor/ccompetitor), panning in 2 mM Ca2+, elution 5 mM EDTA, 20 μM competitor, E≤−1.5 taken as binder. Type of test: binding. From the text:
(§11) We next set out to measure the binding of S100 proteins to this library of random 12-mer peptides. The S100 peptide-binding interface is only exposed upon Ca^2+ -binding (fig. 1A); therefore, we performed phage panning experiments in the presence of saturating Ca^2+ and then eluted the bound phage using saturating ethylenediaminetetraacetic acid (EDTA) (fig. 2B). After this panning step, the population of enriched phage particles will be a mixture of those that bind at the site of interest and those that bind adventitiously (blue and purple phage, fig. 2B) ([Sidhu et al. 2000]; [Willats 2002]). To separate these populations, we repeated the panning experiment in the presence of a saturating concentration of competitor peptide known to bind at the site of interest ([…], fig. 2C) ([Wheeler et al. 2018]). This should lower the enrichment of peptides that bind at the site of interest, while allowing any adventitious interactions to remain. By comparing the competitor and noncompetitor pools, we can distinguish between specific and adventitious binders.
(§12) After panning, we sequenced the resulting phage pools using Illumina sequencing. […] We estimated changes in the frequencies of peptides between samples with and without competitor peptide (supplementary fig. S3, Supplementary Material online). For each peptide, we determined E: (1) E=−ln(cnon-competitor/ccompetitor) where ccompetitor and cnon-competitor are the sequence counts for the peptide recovered from parallel Ca^2+/EDTA panning experiments done with and without competitor peptides.
(§13) If E < 0, the competitor peptide interferes with the Ca^2+ -dependent enrichment of the peptide. […] If E > 0, the competitor peptide improves Ca^2+ -dependent enrichment of the phage peptide. This could occur if the phage peptide binds more favorably to the S100/competitor peptide complex than the S100 alone. […]
(§14) Phage display experiments were performed using the PhD-12 peptide phage display kit (NEB). […] Eluates were tittered to quantify eluted phage as follows. […]

The subject of test [4] is ancA5/A6 (reconstructed last common ancestor of S100A5 and S100A6). The test is described as above. As to conditions: ancA5/A6 (aA5A6 in csv); E=−ln(cnon-competitor/ccompetitor); panning in 2 mM Ca2+, elution 5 mM EDTA; 20 μM competitor; E≤−1.5 taken as binder. Type of test: binding.
Excerpt: as §11, §12, §13, §14

Test [5] has as its target T2, hA5 (human S100A5). The test is described as above. Type of test: binding. The note with it: E=−ln(cnon-competitor/ccompetitor), panning in 2 mM Ca2+, elution 5 mM EDTA, 20 μM competitor, E≤−1.5 taken as binder.
Excerpt: as §11, §12, §13, §14

For 5FAM-GFDWRWGMEALTGGGSAE [probe], the “calcium dependence of probe binding” value with hA5, with hA6 and in the test with ancA5/A6 was “bound in a calcium-dependent manner” throughout.

EGLDLMSILELIGGSAE [phage_ctl_0]: the values for the dissociation constant (Kd) at hA6 (human S100A6) [1] and on hA5 (human S100A5) [2] were 48.7 µM and 47.2 µM, respectively.

The substance EQPLLKYLQLMRGGSAE [phage_ctl_5] returned an equilibrium dissociation constant (Kd) at hA5 (human S100A5) [2] of 85.8 µM.

For the substance GEVTNYGYLVDQGGSAE [phage_ctl_7], binding on hA6 (human S100A6) [1] was put at a Kd of 42.7 µM.

Take GWLEQYFSRTADGGSAE [phage_ctl_2]: the Kd on hA6 (human S100A6) [1] stood at 14.6 µM; at hA5 (human S100A5) [2], 18.6 µM.

At hA5 (human S100A5) [2], HVQWRDRNVIEWGGSAE [phage_ctl_6] gave a Kd of 123 µM.

Take RHGFLQDILFKLGGSAE [phage_ctl_1]: the Kd on hA6 (human S100A6) [1] turned out to be 61.7 µM; on hA5 (human S100A5) [2] it was 36.4 µM.

Turning to “SGPSDWLHKGVLGGSAE [phage_ctl_9, phage display 12-mer peptide with C-terminal flank, ordered as synthetic test peptide]”, the “E (enrichment)” value turned out to be 0.5131 on hA6 (human S100A6) [3], 5.052 in test [4] and 0.5882 on hA5 (human S100A5) [5].

As for SRQTTSTHEWVVGGSAE [phage_ctl_4], the dissociation constant Kd at hA6 (human S100A6) [1] is 102 µM. Moreover, at hA5 (human S100A5) [2], the “Kd (KD,peptide)” value was “No model could be reliably fit”.

For SSSTYPGFRQSTGGSAE [phage_ctl_8], the Kd on hA6 (human S100A6) [1] amounted to 202 µM.
